Experiments:
[1] = test system: CD44 expressing population (cancer stem cells) of DU145 cells; assay: Flow cytometry analysis (anti-CD44-PE / anti-CD24-FITC staining) of DU145 prostate cancer cells; type: cell-based; settings: IC25 drug conc.; for effect on CD44 expressing cell population of DU145 cells (quadrant plot): 48 hrs exposure; for activity on CD44 expressing cells (cancer stem cells population) of DU145 cancer cells compared to standard therapeutic drug Cisplatin: 48 hrs, bar graph FIG. 10, versus Cisplatin
Experimental: DU145 is a moderately metastatic prostate cancer cell line. Flow cytometry study was conducted to observe the effect of Ethyl-5-methyl-4-(phenylamino) thieno[2,3-d]pyrimidine-6-carboxylate and Ethyl-5-methyl-4-(4-methylphenyl)amino thieno[2,3-d]pyrimidine-6-carboxylate on DU145 cells compared to standard therapeutic drug Cisplatin.
(§1) 1. […] In the quadrant plot upper left region (Q2-UL) only CD44 expressing cells were observed. In the quadrant plot upper right region (Q2-UR) CD44 and CD24 expressing cells were observed. In the quadrant plot lower left region (Q2-LL) […]. In the quadrant plot lower right region (Q2-LR) […].

[2] = test system: CD44 expressing population (cancer stem cells) of MDA MB231 cells; assay: Flow cytometry analysis (anti-CD44-PE / anti-CD24-FITC staining) of MDA MB231 breast cancer cells; type: cell-based; settings: IC25 drug conc.; for effect on CD44 expressing cell population of MDA MB231 cells (quadrant plot): 48 hrs exposure; for activity on CD44 expressing cells (cancer stem cells population) of MDA MB231 cancer cells compared to standard therapeutic drug Cisplatin: 48 hrs, bar graph FIG. 5, versus Cisplatin
Experimental: MDA MB231 is a highly metastatic breast cancer cell line. Flow cytometry study was conducted to observe the effect of Ethyl-5-methyl-4-(phenylamino) thieno[2,3-d]pyrimidine-6-carboxylate and Ethyl-5-methyl-4-(4-methylphenyl)amino thieno[2,3-d]pyrimidine-6-carboxylate on MDA MB231 cells compared to standard therapeutic drug Cisplatin.
as §1

For `N.N.[Cl][Pt][Cl]` [Cisplatin, reference compound], the “effect on CD44 expressing cell population of DU145 cells (quadrant plot)” value (shortened to “effect … of DU145 cells (quadrant plot)”) [1] was “did not have much effect” and the “effect on CD44 expressing cell population of MDA MB231 cells (quadrant plot)” value (shortened to “effect … of MDA MB231 cells (quadrant plot)”) [2] was “did not have much effect”.
`CCOC(=O)c1sc2ncnc(Nc3ccc(C)cc3)c2c1C` [Ethyl-5-methyl-4-(4-methylphenyl)amino thieno[2,3-d]pyrimidine-6-carboxylate] was tested, and the “effect … of DU145 cells (quadrant plot)” value [1] was “marked effect”, the “activity on CD44 expressing cells (cancer stem cells population) of DU145 cancer cells compared to standard therapeutic drug Cisplatin” value [1] was “much better and enhanced activity” and the “effect … of MDA MB231 cells (quadrant plot)” value [2] was “marked effect”. For the same molecule, the “activity on CD44 expressing cells (cancer stem cells population) of MDA MB231 cancer cells compared to standard therapeutic drug Cisplatin” value [2] was “much better and enhanced activity”.
With `CCOC(=O)c1sc2ncnc(Nc3ccccc3)c2c1C` [Ethyl-5-methyl-4-(phenylamino) thieno[2,3-d]pyrimidine-6-carboxylate] the “effect … of DU145 cells (quadrant plot)” value [1] was “marked effect”, the “activity on CD44 expressing cells (cancer stem cells population) of DU145 cancer cells compared to standard therapeutic drug Cisplatin” value [1] was “much better and enhanced activity” and the “effect … of MDA MB231 cells (quadrant plot)” value [2] was “marked effect”. The “activity on CD44 expressing cells (cancer stem cells population) of MDA MB231 cancer cells compared to standard therapeutic drug Cisplatin” value [2] was “much better and enhanced activity”.
